{"source": "paper PMC8262356", "about": "“SLC26A6-selective inhibitor identified in a small-molecule screen blocks fluid absorption in small intestine” (JCI Insight, 2021)", "key": {"[1]": {"system": "mouse distal colonic closed loops", "assay": "Closed distal colonic loop fluid absorption", "assay_type": "in vivo", "conditions": "30 μM luminal", "protocol": "For fluid absorption studies in colon, mice were given free access to 5% dextrose in water but not solid food for 48 hours. Mice were treated with 500 μL mineral oil twice a day rectally (final dose 16 h before surgery) during this period to evacuate the colon. Closed distal colonic loops (length 1.5–2 cm, 1 loop per mouse) were isolated as described previously ([7]). Loops were injected with 100 μL PBS with 30 μM PAT1inh-B01, 10 μM DRAinh-A270, or 10 μM tenapanor (or vehicle). In some experiments, 30 μM PAT1inh-B01 and 10 μM DRAinh-A270 were used together. Colonic loops were removed at 0 and 60 minutes (in separate mice), and loop length and weight were measured to quantify fluid absorption."}, "TMEM16A": {"system": "TMEM16A", "assay": "Selectivity: I- influx in FRT cells coexpressing YFP and TMEM16A", "assay_type": "cell-based", "conditions": "25 μM", "protocol": "PAT1inh-B01 selectivity was studied by testing its effects on related SLC26A family anion transporters and the Cl^– channel TMEM16A. These measurements used a similar Cl^–/I^– exchange protocol, but FRT cells separately expressed each of the SLC26A family members or TMEM16A. […] PAT1inh-B01 selectivity was also tested by short-circuit current (Isc) in well-differentiated human bronchial epithelial (HBE) cells, which have a complex ion transport mechanism that includes cystic fibrosis transmembrane conductance regulator (CFTR), epithelial Na^+ channel (ENaC), and Ca^+2-activated chloride channels (CaCCs) ([13]). […] Potential PAT1inh-B01 cytotoxicity was studied in FRT cells.\nFigure 3 PAT1inh-B01 selectivity and cytotoxicity. […] Cl^–/I^– exchange or I^– influx measured in FRT cells coexpressing YFP and SLC26A isoforms or TMEM16A, with data shown for 25 μM PAT1inh-B01, DMSO vehicle control, and 500 μM niflumic acid (positive control for SLC26A transporters) or 10 μM TMinh-23 (positive control for TMEM16A). […] (C) (left) Short-circuit current (Isc) in well-differentiated HBE cells measured in the absence (top) and presence (bottom) of 25 μM PAT1inh-B01. […]\nYFP-based cellular assays of slc26a3, slc26a4, SLC26A9, and TMEM16A function were performed as described previously ([7]). […] The activities of ENaC, CFTR, and CaCC were determined using well-differentiated HBE cells as described previously ([13]). […]"}}, "data": [{"smiles": "Cc1c(Br)c(C(F)(F)F)nn1CC(=O)N1CCc2nc3cc(-c4ccccc4)[nH]n3c(=O)c2C1", "note": "[PAT1inh-B01]", "values": [{"measurement": "effect on colonic fluid absorption (loop weight-to-length ratio)", "setting": "[1]", "result": "did not inhibit"}, {"measurement": "inhibition of TMEM16A", "setting": "TMEM16A", "result": "did not significantly inhibit"}]}]}
